{
  "source": "patent US9226509B2",
  "about": "“Phagodeterrent compounds of fungal origin” (Consiglio Nazionale Delle Ricerche, priority 2011, dated 2016)",
  "system": "aphid Rhopalosiphum padi",
  "assay": "Assay of the phagodeterrent activity of the R—OH alcohols (two-leaf choice test on wheat leaves in Petri dishes)",
  "format": "in vivo",
  "settings": "for Bonferroni test: Treated media (mean number of aphids on treated leaves): wheat leaves, recorded each hour for 8 hours; for Bonferroni test: significance of treated vs control media: treated vs 5% methanol control leaf",
  "method": "Treatment of wheat leaves consisted of immersion of the same for 10 seconds in aqueous suspensions of 5% methanol of the different alcohols, some of which were also tested at different concentrations.\nAs a control, the same number of leaves was prepared by immersion in an aqueous solution of 5% methanol only.\nAssay of the Phaqodeterrent Activity of the R—OH Alcohols:\nPetri dishes 9 cm in diameter were used, into each of which two wheat leaves were arranged in parallel and separated from one another by a distance of approximately 4 cm; one leaf was treated with the suspension in 5% methanol of alcohol at various concentrations, and the other control leaf was washed with a solution of 5% methanol. Aphids of the species Rhopalosiphum padi were introduced to the dishes (one per dish) at equal distance from the two leaves.\nFor each test, 10 aphids were used and the same test was repeated at least 12 times, for at least 120 aphids. The number of aphids present on the treated leaves and on the control leaves was recorded each hour for a total of 8 hours.\nThe raw data relating to the food choices of the aphids were analysed using the Generalised Linear Model (GLM) procedure for repeated measurements (SPSS release 15.01) and reported in Table 1. The differences of the media between the number of aphids per leaf at each […] and the number of aphids on corresponding control leaves were analysed and corrected by using the Bonferroni test for multiple comparisons.",
  "key": {"[1]": {"settings": "alcohol 1.2 mM in 5% methanol aqueous suspension"}, "[2]": {"settings": "alcohol 0.15 mM in 5% methanol aqueous suspension"}, "[3]": {"settings": "alcohol 0.3 mM in 5% methanol aqueous suspension"}, "[4]": {"settings": "alcohol 0.6 mM in 5% methanol aqueous suspension"}},
  "data": [
    {"compound": "CCCCCCCC/C=C\\CCCCCCCCO", "note": "[Cis-9-octadecenol]", "values": [
      {"measurement": "Bonferroni test: Treated media (mean number of aphids on treated leaves)", "setting": "[1]", "value": "2.281 ± 0.283"},
      {"measurement": "Bonferroni test: significance of treated vs control media", "setting": "alcohol 1.2 mM", "value": "** (** P < 0.01)"}
    ]},
    {"compound": "CCCCCCCCCCCCCCCCCCCCO", "note": "[Eicosanol]", "values": [
      {"measurement": "Bonferroni test: Treated media (mean number of aphids on treated leaves)", "setting": "[1]", "value": "3.042 ± 0.303"},
      {"measurement": "Bonferroni test: significance of treated vs control media", "setting": "alcohol 1.2 mM", "value": "** (** P < 0.01)"}
    ]},
    {"compound": "CCCCCCCCCCCCCCCCCO", "note": "[Heptadecanol]", "values": [
      {"measurement": "Bonferroni test: Treated media (mean number of aphids on treated leaves)", "setting": "[2]", "value": "3.240 ± 0.410"},
      {"measurement": "Bonferroni test: significance of treated vs control media", "setting": "alcohol 0.15 mM", "value": "** (** P < 0.01)"},
      {"measurement": "Bonferroni test: Treated media (mean number of aphids on treated leaves)", "setting": "[3]", "value": "3.063 ± 0.532"},
      {"measurement": "Bonferroni test: significance of treated vs control media", "setting": "alcohol 0.3 mM", "value": "** (** P < 0.01)"},
      {"measurement": "Bonferroni test: Treated media (mean number of aphids on treated leaves)", "setting": "[4]", "value": "2.177 ± 0.298"},
      {"measurement": "Bonferroni test: significance of treated vs control media", "setting": "alcohol 0.6 mM", "value": "** (** P < 0.01)"},
      {"measurement": "Bonferroni test: Treated media (mean number of aphids on treated leaves)", "setting": "[1]", "value": "1.094 ± 0.294"},
      {"measurement": "Bonferroni test: significance of treated vs control media", "setting": "alcohol 1.2 mM", "value": "** (** P < 0.01)"}
    ]},
    {"compound": "CCCCCCCCCCCCCCCCO", "note": "[Hexadecanol]", "values": [
      {"measurement": "Bonferroni test: Treated media (mean number of aphids on treated leaves)", "setting": "[2]", "value": "3.938 ± 0.429"},
      {"measurement": "Bonferroni test: significance of treated vs control media", "setting": "alcohol 0.15 mM", "value": "* (*P < 0.05)"},
      {"measurement": "Bonferroni test: Treated media (mean number of aphids on treated leaves)", "setting": "[3]", "value": "2.635 ± 0.323"},
      {"measurement": "Bonferroni test: significance of treated vs control media", "setting": "alcohol 0.3 mM", "value": "** (** P < 0.01)"},
      {"measurement": "Bonferroni test: Treated media (mean number of aphids on treated leaves)", "setting": "[4]", "value": "2.281 ± 0.371"},
      {"measurement": "Bonferroni test: significance of treated vs control media", "setting": "alcohol 0.6 mM", "value": "** (** P < 0.01)"},
      {"measurement": "Bonferroni test: Treated media (mean number of aphids on treated leaves)", "setting": "[1]", "value": "1.308 ± 0.315"},
      {"measurement": "Bonferroni test: significance of treated vs control media", "setting": "alcohol 1.2 mM", "value": "** (** P < 0.01)"}
    ]},
    {"compound": "CCCCCCCCCCCCCCCCCCCO", "note": "[Nonadecanol]", "values": [
      {"measurement": "Bonferroni test: Treated media (mean number of aphids on treated leaves)", "setting": "[1]", "value": "3.427 ± 0.391"},
      {"measurement": "Bonferroni test: significance of treated vs control media", "setting": "alcohol 1.2 mM", "value": "* (*P < 0.05)"}
    ]},
    {"compound": "CCCCCCCCCCCCCCCO", "note": "[Pentadecanol]", "values": [
      {"measurement": "Bonferroni test: Treated media (mean number of aphids on treated leaves)", "setting": "alcohol 0.075 mM in 5% methanol aqueous suspension", "value": "3.073 ± 0.335"},
      {"measurement": "Bonferroni test: significance of treated vs control media", "setting": "alcohol 0.075 mM", "value": "** (** P < 0.01)"},
      {"measurement": "Bonferroni test: Treated media (mean number of aphids on treated leaves)", "setting": "[2]", "value": "3.406 ± 0.405"},
      {"measurement": "Bonferroni test: significance of treated vs control media", "setting": "alcohol 0.15 mM", "value": "** (** P < 0.01)"},
      {"measurement": "Bonferroni test: Treated media (mean number of aphids on treated leaves)", "setting": "[3]", "value": "2.271 ± 0.283"},
      {"measurement": "Bonferroni test: significance of treated vs control media", "setting": "alcohol 0.3 mM", "value": "** (** P < 0.01)"},
      {"measurement": "Bonferroni test: Treated media (mean number of aphids on treated leaves)", "setting": "[4]", "value": "2.385 ± 0.237"},
      {"measurement": "Bonferroni test: significance of treated vs control media", "setting": "alcohol 0.6 mM", "value": "** (** P < 0.01)"},
      {"measurement": "Bonferroni test: Treated media (mean number of aphids on treated leaves)", "setting": "[1]", "value": "1.365 ± 0.301"},
      {"measurement": "Bonferroni test: significance of treated vs control media", "setting": "alcohol 1.2 mM", "value": "** (** P < 0.01)"}
    ]},
    {"compound": "CCCCCCCCCCCCCCO", "note": "[Tetradecanol]", "values": [
      {"measurement": "Bonferroni test: Treated media (mean number of aphids on treated leaves)", "setting": "[2]", "value": "2.375 ± 0.370"},
      {"measurement": "Bonferroni test: significance of treated vs control media", "setting": "alcohol 0.15 mM", "value": "** (** P < 0.01)"},
      {"measurement": "Bonferroni test: Treated media (mean number of aphids on treated leaves)", "setting": "[3]", "value": "3.271 ± 0.217"},
      {"measurement": "Bonferroni test: significance of treated vs control media", "setting": "alcohol 0.3 mM", "value": "** (** P < 0.01)"},
      {"measurement": "Bonferroni test: Treated media (mean number of aphids on treated leaves)", "setting": "[4]", "value": "2.365 ± 0.264"},
      {"measurement": "Bonferroni test: significance of treated vs control media", "setting": "alcohol 0.6 mM", "value": "** (** P < 0.01)"},
      {"measurement": "Bonferroni test: Treated media (mean number of aphids on treated leaves)", "setting": "[1]", "value": "1.938 ± 0.322"},
      {"measurement": "Bonferroni test: significance of treated vs control media", "setting": "alcohol 1.2 mM", "value": "** (** P < 0.01)"}
    ]},
    {"compound": "Octadecenol", "values": [
      {"measurement": "Bonferroni test: Treated media (mean number of aphids on treated leaves)", "setting": "[1]", "value": "2.469 ± 0.333"},
      {"measurement": "Bonferroni test: significance of treated vs control media", "setting": "alcohol 1.2 mM", "value": "** (** P < 0.01)"}
    ]}
  ]
}
